# Patent US20230295200A1 (REGENTS OF THE UNIVERSITY OF MICHIGAN, priority 2022, published 2023)
# Biological target: T1, STAT5A (Homo sapiens, UniProt P42229)
# T1 sequence (P42229 1-794): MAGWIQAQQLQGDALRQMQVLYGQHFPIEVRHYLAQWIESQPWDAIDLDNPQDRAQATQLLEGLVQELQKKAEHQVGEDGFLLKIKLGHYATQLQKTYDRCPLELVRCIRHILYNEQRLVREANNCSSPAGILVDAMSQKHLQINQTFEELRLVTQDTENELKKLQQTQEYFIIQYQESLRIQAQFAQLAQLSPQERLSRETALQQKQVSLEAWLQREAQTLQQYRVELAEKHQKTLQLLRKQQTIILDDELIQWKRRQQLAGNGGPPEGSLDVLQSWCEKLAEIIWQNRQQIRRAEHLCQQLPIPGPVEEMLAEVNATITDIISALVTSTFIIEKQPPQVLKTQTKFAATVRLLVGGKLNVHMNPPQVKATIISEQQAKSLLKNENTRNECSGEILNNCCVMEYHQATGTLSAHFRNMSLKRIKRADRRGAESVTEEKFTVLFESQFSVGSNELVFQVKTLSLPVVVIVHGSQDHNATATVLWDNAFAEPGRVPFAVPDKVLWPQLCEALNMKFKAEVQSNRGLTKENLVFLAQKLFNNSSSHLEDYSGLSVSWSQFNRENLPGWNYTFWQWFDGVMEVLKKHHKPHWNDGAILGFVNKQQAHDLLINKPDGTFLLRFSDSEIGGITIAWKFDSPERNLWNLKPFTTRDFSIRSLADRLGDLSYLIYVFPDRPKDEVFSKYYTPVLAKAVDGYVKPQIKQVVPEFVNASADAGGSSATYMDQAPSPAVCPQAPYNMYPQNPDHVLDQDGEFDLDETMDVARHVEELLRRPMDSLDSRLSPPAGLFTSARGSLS
# Assay: Fluorescence polarization (FP) binding assay, STAT5A
# Details: FP competition, 5 nM fluorescein-labeled tracer, 200 nM protein, PBS pH7.4
# Experimental: Evaluation of the activity of the inhibitors may be accomplished by fluorescence polarization (FP) experiments. A representative general protocol is the following:
# Fluorescence polarization (FP) experiments are performed in black round-bottom plates using the CLARIOstar microplate reader. To each well, fluorescein-labeled tracer and STAT5 or STAT6 protein are added in assay buffer. […] The inhibition constants are determined as the concentration of the STAT5 or STAT6 at which 50% of the ligand is bound.
# Fluorescence polarization (FP) experiments were performed in 96-well, black round-bottom plates (Microfluor 2, Fisher Scientific) using the CLARIOstar microplate reader (BMG Labtech). To each well, 5 nM of fluoresceinlabeled tracer and 200 nM of STAT5 and/or STAT6 protein were added to a final volume of 100 μl in the assay buffer (PBS pH7.4+0.01% BGG+0.01% Tween-20, 2 mM DTT). The plate was mixed on a shaker for 15 m and incubated at room temperature for 1 h to reach equilibrium. […] All experimental data were analyzed using Prism 8.0 software (GraphPad Software), and the inhibition constants were determined by nonlinear curve fitting as the concentration of the STAT5 and/or STAT6 at which 50% of the ligand is bound.
row,SMILES,Ki
1,"Cc1ccccc1-c1cnc(NC(=O)[C@@H]2CCCN2C(=O)[C@@H](NC(=O)c2cc3cc(C(F)(F)P(=O)(O)O)ccc3s2)C(C)(C)C)s1 [Compound 256, ((2-(((S)-3,3-dimethyl-1-oxo-1-((S)-2-((5-(o-tolyl)thiazol-2-yl)carbamoyl)pyrrolidin-1-yl)butan-2-yl)carbamoyl)benzo[b]thiophen-5-yl)difluoromethyl)phosphonic acid]",1000 to 10000 nM
2,"Cc1cccc(-c2cnc(NC(=O)[C@@H]3CCCN3C(=O)[C@@H](NC(=O)c3cc4cc(C(F)(F)P(=O)(O)O)ccc4s3)C(C)(C)C)s2)c1 [Compound 257, ((2-(((S)-3,3-dimethyl-1-oxo-1-((S)-2-((5-(m-tolyl)thiazol-2-yl)carbamoyl)pyrrolidin-1-yl)butan-2-yl)carbamoyl)benzo[b]thiophen-5-yl)difluoromethyl)phosphonic acid]",1000 to 10000 nM
3,"Cc1ccc(-c2cnc(NC(=O)[C@@H]3CCCN3C(=O)[C@@H](NC(=O)c3cc4cc(C(F)(F)P(=O)(O)O)ccc4s3)C(C)(C)C)s2)cc1 [Compound 258, ((2-(((S)-3,3-dimethyl-1-oxo-1-((S)-2-((5-(p-tolyl)thiazol-2-yl)carbamoyl)pyrrolidin-1-yl)butan-2-yl)carbamoyl)benzo[b]thiophen-5-yl)difluoromethyl)phosphonic acid]",> 10000 nM
4,"CC(C)(C)[C@H](NC(=O)c1cc2cc(C(F)(F)P(=O)(O)O)ccc2s1)C(=O)N1CCC[C@H]1C(=O)Nc1ncc(-c2ccccc2F)s1 [Compound 259, (difluoro(2-(((S)-1-((S)-2-((5-(2-fluorophenyl)thiazol-2-yl)carbamoyl)pyrrolidin-1-yl)-3,3-dimethyl-1-oxobutan-2-yl)carbamoyl)benzo[b]thiophen-5-yl)methyl)phosphonic acid]",1000 to 10000 nM
5,"CC(C)(C)[C@H](NC(=O)c1cc2cc(C(F)(F)P(=O)(O)O)ccc2s1)C(=O)N1CCC[C@H]1C(=O)Nc1ncc(-c2cccc(F)c2)s1 [Compound 260, (difluoro(2-(((S)-1-((S)-2-((5-(3-fluorophenyl)thiazol-2-yl)carbamoyl)pyrrolidin-1-yl)-3,3-dimethyl-1-oxobutan-2-yl)carbamoyl)benzo[b]thiophen-5-yl)methyl)phosphonic acid]",100 to 1000 nM
6,"CC(C)(C)[C@H](NC(=O)c1cc2cc(C(F)(F)P(=O)(O)O)ccc2s1)C(=O)N1CCC[C@H]1C(=O)Nc1ncc(-c2ccc(F)cc2)s1 [Compound 261, (difluoro(2-(((S)-1-((S)-2-((5-(4-fluorophenyl)thiazol-2-yl)carbamoyl)pyrrolidin-1-yl)-3,3-dimethyl-1-oxobutan-2-yl)carbamoyl)benzo[b]thiophen-5-yl)methyl)phosphonic acid]",1000 to 10000 nM
7,"CC(C)(C)[C@H](NC(=O)c1cc2cc(C(F)(F)P(=O)(O)O)ccc2s1)C(=O)N1CCC[C@H]1C(=O)Nc1ncc(-c2cccc(Cl)c2)s1 [Compound 262, ((2-(((S)-1-((S)-2-((5-(3-chlorophenyl)thiazol-2-yl)carbamoyl)pyrrolidin-1-yl)-3,3-dimethyl-1-oxobutan-2-yl)carbamoyl)benzo[b]thiophen-5-yl)difluoromethyl)phosphonic acid]",1000 to 10000 nM
8,"CC(C)(C)[C@H](NC(=O)c1cc2cc(C(F)(F)P(=O)(O)O)ccc2s1)C(=O)N1CCC[C@H]1C(=O)Nc1ncc(-c2ccc(Cl)cc2)s1 [Compound 263, ((2-(((S)-1-((S)-2-((5-(4-chlorophenyl)thiazol-2-yl)carbamoyl)pyrrolidin-1-yl)-3,3-dimethyl-1-oxobutan-2-yl)carbamoyl)benzo[b]thiophen-5-yl)difluoromethyl)phosphonic acid]",> 10000 nM
9,"CC(C)(C)[C@H](NC(=O)c1cc2cc(C(F)(F)P(=O)(O)O)ccc2s1)C(=O)N1CCC[C@H]1C(=O)Nc1ncc(-c2ccc(Br)cc2)s1 [Compound 264, ((2-(((S)-1-((S)-2-((5-(4-bromophenyl)thiazol-2-yl)carbamoyl)pyrrolidin-1-yl)-3,3-dimethyl-1-oxobutan-2-yl)carbamoyl)benzo[b]thiophen-5-yl)difluoromethyl)phosphonic acid]",1000 to 10000 nM
10,"CN(C(=O)[C@@H]1CCCCCN1C(=O)[C@@H](NC(=O)c1cc2cc(C(F)(F)P(=O)(O)O)ccc2s1)C(C)(C)C)c1ncc(-c2ccccc2)s1 [Compound 303, ((2-(((S)-3,3-dimethyl-1-((S)-2-(methyl(5-phenylthiazol-2-yl)carbamoyl)azepan-1-yl)-1-oxobutan-2-yl)carbamoyl)benzo[b]thiophen-5-yl)difluoromethyl)phosphonic acid]",1000 to 10000 nM

# Other lines, results leading:
row,Ki,SMILES
1,1000 to 10000 nM,"CCN(C(=O)[C@@H]1CCCCCN1C(=O)[C@@H](NC(=O)c1cc2cc(C(F)(F)P(=O)(O)O)ccc2s1)C(C)(C)C)c1ncc(-c2ccccc2)s1 [Compound 304, ((2-(((S)-1-((S)-2-(ethyl(5-phenylthiazol-2-yl)carbamoyl)azepan-1-yl)-3,3-dimethyl-1-oxobutan-2-yl)carbamoyl)benzo[b]thiophen-5-yl)difluoromethyl)phosphonic acid]"
2,1000 to 10000 nM,"CN(C)C(=O)CCN(C(=O)[C@@H]1CCCN1C(=O)[C@@H](NC(=O)c1cc2cc(C(F)(F)P(=O)(O)O)ccc2s1)C1CC1)c1ccc(-c2nccs2)cc1 [Compound 321, ((2-(((S)-1-cyclopropyl-2-((S)-2-((3-(dimethylamino)-3-oxopropyl)(4-(thiazol-2-yl)phenyl)carbamoyl)pyrrolidin-1-yl)-2-oxoethyl)carbamoyl)benzo[b]thiophen-5-yl)difluoromethyl)phosphonic acid]"
3,100 to 1000 nM,"CCC(CC)[C@H](NC(=O)c1cc2cc(C(F)(F)P(=O)(O)O)ccc2s1)C(=O)N1CCC[C@H]1C(=O)N(CCC(=O)N(C)C)c1ccc(-c2nccs2)cc1 [Compound 322, ((2-(((S)-1-((S)-2-((3-(dimethylamino)-3-oxopropyl)(4-(thiazol-2-yl)phenyl)carbamoyl)pyrrolidin-1-yl)-3-ethyl-1-oxopentan-2-yl)carbamoyl)benzo[b]thiophen-5-yl)difluoromethyl)phosphonic acid]"
4,1000 to 10000 nM,"CN(C)C(=O)CCN(C(=O)[C@@H]1CCCN1C(=O)[C@@H](NC(=O)c1cc2cc(C(F)(F)P(=O)(O)O)ccc2s1)C1CCCCC1)c1ccc(-c2nccs2)cc1 [Compound 323, ((2-(((S)-1-cyclohexyl-2-((S)-2-((3-(dimethylamino)-3-oxopropyl)(4-(thiazol-2-yl)phenyl)carbamoyl)pyrrolidin-1-yl)-2-oxoethyl)carbamoyl)benzo[b]thiophen-5-yl)difluoromethyl)phosphonic acid]"
5,1000 to 10000 nM,"CN(C)C(=O)CCN(C(=O)[C@@H]1CCCN1C(=O)[C@@H](NC(=O)c1cc2cc(C(F)(F)P(=O)(O)O)ccc2s1)c1ccccc1)c1ccc(-c2nccs2)cc1 [Compound 324, ((2-(((S)-2-((S)-2-((3-(dimethylamino)-3-oxopropyl)(4-(thiazol-2-yl)phenyl)carbamoyl)pyrrolidin-1-yl)-2-oxo-1-phenylethyl)carbamoyl)benzo[b]thiophen-5-yl)difluoromethyl)phosphonic acid]"
6,100 to 1000 nM,"CN(C)C(=O)CCN(C(=O)[C@@H]1CCCN1C(=O)[C@H](Cc1ccc(F)cc1)NC(=O)c1cc2cc(C(F)(F)P(=O)(O)O)ccc2s1)c1ccc(-c2nccs2)cc1 [Compound 325, ((2-(((S)-1-((S)-2-((3-(dimethylamino)-3-oxopropyl)(4-(thiazol-2-yl)phenyl)carbamoyl)pyrrolidin-1-yl)-3-(4-fluorophenyl)-1-oxopropan-2-yl)carbamoyl)benzo[b]thiophen-5-yl)difluoromethyl)phosphonic acid]"
7,1000 to 10000 nM,"CN(C)C(=O)CCN(C(=O)[C@@H]1CCCN1C(=O)[C@H](Cc1ccc(Br)cc1)NC(=O)c1cc2cc(C(F)(F)P(=O)(O)O)ccc2s1)c1ccc(-c2nccs2)cc1 [Compound 326, ((2-(((S)-3-(4-bromophenyl)-1-((S)-2-((3-(dimethylamino)-3-oxopropyl)(4-(thiazol-2-yl)phenyl)carbamoyl)pyrrolidin-1-yl)-1-oxopropan-2-yl)carbamoyl)benzo[b]thiophen-5-yl)difluoromethyl)phosphonic acid]"
